Several values for one entry are separate records, joined by “and”; a condition that tells them apart may be missing. Equal values may be shown once.
Key:
[1] = Cell viability assay (WST-8), HUDEP-2; format: cell-based, human; conditions: human, HUDEP-2 cells, control (0 μM) = 100
Experimental: (§1) A WST-8 (2-(2-methoxy-4-nitrophenyl)-3-(4-nitrophenyl)-5-(2,4-disulfophenyl)-2H-tetrazolium) assay using a Cell Counting Kit-8 (DOJINDO) was performed to measure cell viability using an EnSpire microplate reader (PerkinElmer).

HUDEP-2 cells = assay: Cell viability assay (WST-8), HUDEP-2; format: cell-based, human; conditions: for cell viability in HUDEP-2 cells: control (0 μM) = 100
Experimental: as §1

H3K9me2 in HUDEP-2 cells = assay: Western blotting of H3K9me2 in HUDEP-2 cells; format: cell-based, human; conditions: HUDEP-2, 4 days
Experimental: Preparation of cell lysates and western blotting were performed as described previously. Protein from cells lysates in lysis buffer (50 mM Tris-HCl (pH 7.5), 150 mM NaCl, 5 mM EDTA, 0.1% NP-40, 1 mM dithiothreitol) were separated by sodium dodecyl sulfate–polyacrylamide gel electrophoresis (SDS-PAGE) and transferred to a polyvinylidene difluoride (PVDF) membrane (Millipore) by electroblotting. The membranes incubated with primary antibodies overnight at 4 °C and secondary antibodies for 1 h at room temperature. The immune complexes were detected with the Immobilon Western Chemiluminescent HRP Substrate (Millipore). Luminescence was analyzed on a FUSION SOLO S (Vilber). Western blot bands were visualized using Evolution Capt software (M&S Instruments Inc.). Primary antibodies used were anti-G9a (1:1000, CST, #3306), anti–α-tubulin (1:5000, Abcam, ab18251), anti-H3K9me2 (1:3000, Abcam, ab1220), anti-H3 (1:5000, Abcam, ab1791), anti-H3K27me3 (1:3000, Sigma, 07-449), anti-GLP (1:1000, CST, #35005), anti-FLAG (100 ng/ml, Fujifilm, 01422383), anti-His (1:5000, MBL, PM032), anti-BCL11A (1:1000, abcam, ab19487), anti-ZBTB7A (1:1000, CST, #50565), anti-CHD3 (1:1000, Novus Biologicals, NB100-60412), and anti-CHD4 (1:1000, abcam, ab240640). Uncropped scans of all of the blots are available in Source Data file.

[2] = tested on: β- and γ-globin genes in HUDEP-2 cells; assay: RT-qPCR of β- and γ-globin in HUDEP-2 cells; format: cell-based, human; conditions: for β-globin expression in HUDEP-2 cells / γ-globin expression in HUDEP-2 cells: relative to DMSO = 1, replicate values
Experimental: Total cellular RNA was prepared using the Tissue Total RNA Mini Kit (FAVORGEN), and cDNA was synthesized using ReverTra Ace Master Mix (TOYOBO). Expression of target genes was analyzed using THUNDERBIRD SYBR qPCR Mix (TOYOBO) on a CFX Connect Real Time System (Bio-Rad). The qPCR data were acquired on CFX Maestro (Bio-Rad). Primers are listed in Supplementary Table 10. GAPDH was used as a reference. Primers were purchased from INTEGRATED DNA TECHNOLOGIES or FASMAC.

[3] = tested on: BGLT3 RNA in HUDEP-2 cells; assay: RT-qPCR of BGLT3 in HUDEP-2 cells; format: cell-based, human; conditions: for BGLT3 expression in HUDEP-2 cells: relative to DMSO = 1, replicate values
How it was run: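 Total RNA reverse-transcribed to cDNA, then target transcripts quantified by SYBR Green real-time qPCR. Expression normalized to GAPDH as reference gene.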

[4] = tested on: rat myoblast cell line H9c2; assay: Cell viability assay (WST-8), H9c2; format: cell-based; conditions: control (0 μM) = 100
Experimental: as §1

[5] = Cell viability assay (WST-8), H9c2; format: cell-based, rat; conditions: rat, H9c2 myoblast cells, control (0 μM) = 100
Experimental: as §1

mice = assay: Mouse acute toxicity assay, survival; format: in vivo; conditions: intravenous, 2-week observation
Experimental: All animal studies were approved by the Institutional Committee for Animal Experiments of the Institute of Microbial Chemistry, and were performed in accordance with relevant guidelines and regulations to minimize animal suffering. Four-week-old female ICR mice were purchased from Charles River Breeding Laboratories (Yokohama, Japan) and maintained in a specific pathogen-free barrier facility. […] Samples were dissolved in saline containing 10% DMSO and 1% Tween 80 and injected intravenously into mice.

COc1cc2c(NC3CCN(C(C)C)CC3)nc(C3CCCCC3)nc2cc1OCCCN1CCCC1 [UNC0638]
viability at 0.00457247 μM ([1]; 0.00457247 μM): 97.7% | viability at 0.0137174 μM ([1]; 0.0137174 μM): 96.8% | viability at 0.0411523 μM ([1]; 0.0411523 μM): 103% | viability at 0.123457 μM ([1]; 0.123457 μM): 98.7% | viability at 0.37037 μM ([1]; 0.37037 μM): 83.3% | viability at 1.11111 μM ([1]; 1.11111 μM): 36% | viability at 10 μM ([1]; 10 μM): 2.19% | cell viability in HUDEP-2 cells (HUDEP-2 cells; 0.00457247 μM): 93.1765 and 99.8296 | cell viability in HUDEP-2 cells (HUDEP-2 cells; 0.0137174 μM): 92.549 and 98.1261 | cell viability in HUDEP-2 cells (HUDEP-2 cells; 0.0411523 μM): 91.9216 and 96.0818 | cell viability in HUDEP-2 cells (HUDEP-2 cells; 0.123457 μM): 90.9804 and 93.0153 | cell viability in HUDEP-2 cells (HUDEP-2 cells; 0.37037 μM): 82.1961 and 79.7274 | cell viability in HUDEP-2 cells (HUDEP-2 cells; 1.11111 μM): 35.1373 and 35.4344 | cell viability in HUDEP-2 cells (HUDEP-2 cells; 10 μM): 4.078 and 3.407 | cytotoxic effect on viability (HUDEP-2 cells; HUDEP-2, 3 days): severe cell toxicity | cellular H3K9me2 levels (H3K9me2 in HUDEP-2 cells): reduction of H3K9me2 levels | β-globin expression in HUDEP-2 cells ([2]; 0.01 μM): 1.0792 and 0.9641 and 1.119 | γ-globin expression in HUDEP-2 cells ([2]; 0.01 μM): 2.161 and 1.8663 and 1.942 | β-globin expression in HUDEP-2 cells ([2]; 0.03 μM): 0.8727 and 0.8955 and 0.9796 | γ-globin expression in HUDEP-2 cells ([2]; 0.03 μM): 2.931 and 2.632 and 2.938 | β-globin expression in HUDEP-2 cells ([2]; 0.1 μM): 0.7919 and 0.6648 and 0.9576 | γ-globin expression in HUDEP-2 cells ([2]; 0.1 μM): 3.187 and 2.85 and 3.299 | β-globin expression in HUDEP-2 cells ([2]; 0.3 μM): 0.6454 and 0.4522 and 0.612 | γ-globin expression in HUDEP-2 cells ([2]; 0.3 μM): 4.136 and 2.987 and 3.803 | γ-globin mRNA level ([2]; HUDEP-2): induced the expression of both BGLT3 and γ-globin | BGLT3 expression in HUDEP-2 cells ([3]; 0.01 μM): 1.173 and 1.9605 and 1.436 | BGLT3 expression in HUDEP-2 cells ([3]; 0.03 μM): 1.045 and 1.983 and 1.934 | BGLT3 expression in HUDEP-2 cells ([3]; 0.1 μM): 1.162 and 3.201 and 2.863 | BGLT3 expression in HUDEP-2 cells ([3]; 0.3 μM): 3.578 and 5.267 and 5.078 | BGLT3 expression ([3]; HUDEP-2): induced the expression of both BGLT3 and γ-globin | cell viability in H9c2 cells ([4]; 0.039 μM): 83.333 and 114.948 and 83.569 | cell viability in H9c2 cells ([4]; 0.156 μM): 95.490 and 88.952 | cell viability in H9c2 cells ([4]; 0.625 μM): 87.887 and 83.853 | viability at 0.156 μM ([5]; 0.156 μM): 90.4% | viability at 0.625 μM ([5]; 0.625 μM): 92.4% | Number of alive mice (mice; 1.5625 mg/kg): 3/3 | Number of alive mice (mice; 3.125 mg/kg): 3/3 | Number of alive mice (mice; 6.25 mg/kg): 0/3 | Number of alive mice (mice; 12.5 mg/kg): 0/3 | Number of alive mice (mice; 25 mg/kg): 0/3
